Laboratory results reported in the kinase profiling compilation of Christmann-Franck et al. (2016).

How the values were obtained:
Test in all cases: radiometric filter-binding kinase assay
ABL1 (human) = ABL1 (human) (UniProt P00519); conditions: compound 100.0 µM; ATP 5 µM
BRSK1 (human) = BRSK1 (human) (UniProt Q8TDC3); conditions: compound 100.0 µM; ATP 20 µM
BTK (human) = BTK (human) (UniProt Q06187); conditions: compound 100.0 µM; ATP 50 µM
CAMKK2 (human) = CAMKK2 (human) (UniProt Q96RR4); conditions: compound 100.0 µM; ATP 20 µM
CaMK1 (human) = CaMK1 (human) (UniProt Q14012); conditions: compound 100.0 µM; ATP 50 µM
DAPK1 (human) = DAPK1 (human) (UniProt P53355); conditions: compound 100.0 µM; ATP 5 µM
EPHA4 (human) = EPHA4 (human) (UniProt P54764); conditions: compound 100.0 µM; ATP 50 µM
HIPK1 (human) = HIPK1 (human) (UniProt Q86Z02); conditions: compound 100.0 µM; ATP 20 µM
INSR (human) = INSR (human) (UniProt P06213); conditions: compound 100.0 µM; ATP 20 µM
IRAK4 (human) = IRAK4 (human) (UniProt Q9NWZ3); conditions: compound 100.0 µM; ATP 20 µM
JAK2 JH1 JH2 (human) = JAK2 JH1 JH2 (human) (UniProt O60674); conditions: compound 100.0 µM; ATP 5 µM
MAP2K1 (human) = MAP2K1 (human) (UniProt Q02750); conditions: compound 100.0 µM; ATP 5 µM
MAP3K7 TAB1 (human) = MAP3K7 TAB1 (human) (UniProt Q15750+O43318); conditions: compound 100.0 µM; ATP 5 µM
MAP3K9 (human) = MAP3K9 (human) (UniProt P80192); conditions: compound 100.0 µM; ATP 20 µM
MAPK13 (human) = MAPK13 (human) (UniProt O15264); conditions: compound 100.0 µM; ATP 5 µM
MAPK9 (human) = MAPK9 (human) (UniProt P45984); conditions: compound 100.0 µM; ATP 20 µM
MAPKAPK3 (human) = MAPKAPK3 (human) (UniProt Q16644); conditions: compound 100.0 µM; ATP 20 µM
MAPKAPK5 (human) = MAPKAPK5 (human) (UniProt Q8IW41); conditions: compound 100.0 µM; ATP 20 µM
MARK1 (human) = MARK1 (human) (UniProt Q9P0L2); conditions: compound 100.0 µM; ATP 20 µM
MKNK2 (human) = MKNK2 (human) (UniProt Q9HBH9); conditions: compound 100.0 µM; ATP 50 µM
NEK2 (human) = NEK2 (human) (UniProt P51955); conditions: compound 100.0 µM; ATP 50 µM
NTRK1 (human) = NTRK1 (human) (UniProt P04629); conditions: compound 100.0 µM; ATP 20 µM
NUAK1 (human) = NUAK1 (human) (UniProt O60285); conditions: compound 100.0 µM; ATP 20 µM
PAK7 (human) = PAK7 (human) (UniProt Q9P286); conditions: compound 100.0 µM; ATP 20 µM
PDPK1 (human) = PDPK1 (human) (UniProt O15530); conditions: compound 100.0 µM
PIM1 (human) = PIM1 (human) (UniProt P11309); conditions: compound 100.0 µM; ATP 20 µM
PIM2 (human) = PIM2 (human) (UniProt Q9P1W9); conditions: compound 100.0 µM; ATP 5 µM
PIM3 (human) = PIM3 (human) (UniProt Q86V86); conditions: compound 100.0 µM; ATP 20 µM
PLK1 (human) = PLK1 (human) (UniProt P53350); conditions: compound 100.0 µM; ATP 5 µM
PRKCG (human) = PRKCG (human) (UniProt P05129); conditions: compound 100.0 µM; ATP 20 µM
RIPK2 (human) = RIPK2 (human) (UniProt O43353); conditions: compound 100.0 µM; ATP 20 µM
RPS6KA5 KD1 KD2 (human) = RPS6KA5 KD1 KD2 (human) (UniProt O75582); conditions: compound 100.0 µM; ATP 20 µM
STK16 (human) = STK16 (human) (UniProt O75716); conditions: compound 100.0 µM; ATP 50 µM
STK3 (human) = STK3 (human) (UniProt Q13188); conditions: compound 100.0 µM; ATP 20 µM
TEK (human) = TEK (human) (UniProt Q02763); conditions: compound 100.0 µM; ATP 20 µM
YES1 (human) = YES1 (human) (UniProt P07947); conditions: compound 100.0 µM; ATP 20 µM

Chain of RPS6KA5 KD1 KD2 (human) (O75582 whole entry, looked up): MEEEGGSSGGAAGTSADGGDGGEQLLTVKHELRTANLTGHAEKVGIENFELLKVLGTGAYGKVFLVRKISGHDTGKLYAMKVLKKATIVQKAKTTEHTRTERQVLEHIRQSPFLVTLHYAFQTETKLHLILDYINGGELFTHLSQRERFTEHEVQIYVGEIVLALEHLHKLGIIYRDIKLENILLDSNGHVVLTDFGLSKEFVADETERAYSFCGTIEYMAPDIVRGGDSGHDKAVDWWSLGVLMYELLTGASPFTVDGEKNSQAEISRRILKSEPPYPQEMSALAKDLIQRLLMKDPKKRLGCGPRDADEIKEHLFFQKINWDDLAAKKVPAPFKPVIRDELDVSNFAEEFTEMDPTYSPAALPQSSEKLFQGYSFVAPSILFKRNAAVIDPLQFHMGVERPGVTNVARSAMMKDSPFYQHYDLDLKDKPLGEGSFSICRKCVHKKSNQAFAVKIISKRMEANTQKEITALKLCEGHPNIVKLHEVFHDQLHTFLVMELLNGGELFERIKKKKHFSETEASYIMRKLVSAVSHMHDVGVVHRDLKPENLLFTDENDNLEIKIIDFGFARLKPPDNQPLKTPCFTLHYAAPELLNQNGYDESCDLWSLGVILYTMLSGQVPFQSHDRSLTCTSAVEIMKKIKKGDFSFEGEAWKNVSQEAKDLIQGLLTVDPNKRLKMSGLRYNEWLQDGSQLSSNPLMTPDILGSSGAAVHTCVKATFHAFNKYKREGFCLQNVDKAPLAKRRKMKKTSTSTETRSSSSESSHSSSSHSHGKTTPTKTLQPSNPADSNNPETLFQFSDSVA
Chain of NTRK1 (human) (P04629 whole entry, looked up): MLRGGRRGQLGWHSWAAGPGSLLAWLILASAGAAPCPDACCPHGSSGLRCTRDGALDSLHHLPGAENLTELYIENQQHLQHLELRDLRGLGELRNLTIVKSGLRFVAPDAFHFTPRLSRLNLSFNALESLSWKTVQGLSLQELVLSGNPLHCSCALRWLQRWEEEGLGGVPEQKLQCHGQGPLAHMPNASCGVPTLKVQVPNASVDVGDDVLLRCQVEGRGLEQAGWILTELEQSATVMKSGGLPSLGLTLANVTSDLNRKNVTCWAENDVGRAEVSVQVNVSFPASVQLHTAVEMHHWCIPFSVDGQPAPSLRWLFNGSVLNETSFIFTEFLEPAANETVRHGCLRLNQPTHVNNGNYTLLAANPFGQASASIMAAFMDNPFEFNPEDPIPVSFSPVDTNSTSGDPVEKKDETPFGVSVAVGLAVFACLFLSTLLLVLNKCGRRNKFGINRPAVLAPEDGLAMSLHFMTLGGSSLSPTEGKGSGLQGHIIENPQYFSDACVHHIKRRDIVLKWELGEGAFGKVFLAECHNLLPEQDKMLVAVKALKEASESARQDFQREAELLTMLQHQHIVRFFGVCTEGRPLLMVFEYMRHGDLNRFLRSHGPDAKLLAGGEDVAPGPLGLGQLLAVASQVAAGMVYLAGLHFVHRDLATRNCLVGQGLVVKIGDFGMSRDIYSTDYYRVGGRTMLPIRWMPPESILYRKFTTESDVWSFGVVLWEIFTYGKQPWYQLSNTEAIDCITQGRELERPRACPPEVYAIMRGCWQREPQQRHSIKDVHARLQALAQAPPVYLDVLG
Chain of PDPK1 (human) (O15530 whole entry, looked up): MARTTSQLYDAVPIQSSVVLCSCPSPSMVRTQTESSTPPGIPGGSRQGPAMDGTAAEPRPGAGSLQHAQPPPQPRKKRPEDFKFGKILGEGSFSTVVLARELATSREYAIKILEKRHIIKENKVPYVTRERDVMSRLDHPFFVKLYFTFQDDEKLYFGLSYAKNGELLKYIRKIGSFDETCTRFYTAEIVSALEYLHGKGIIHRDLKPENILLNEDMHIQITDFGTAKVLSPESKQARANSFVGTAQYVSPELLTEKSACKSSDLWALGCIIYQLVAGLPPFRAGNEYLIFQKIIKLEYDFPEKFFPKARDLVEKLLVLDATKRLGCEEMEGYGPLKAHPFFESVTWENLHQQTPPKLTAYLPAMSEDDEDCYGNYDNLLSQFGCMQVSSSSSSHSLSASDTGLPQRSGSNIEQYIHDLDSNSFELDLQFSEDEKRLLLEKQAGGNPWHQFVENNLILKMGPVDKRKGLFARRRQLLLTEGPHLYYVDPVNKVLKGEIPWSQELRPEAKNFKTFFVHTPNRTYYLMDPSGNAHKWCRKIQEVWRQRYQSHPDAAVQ
Chain of MARK1 (human) (Q9P0L2 whole entry, looked up): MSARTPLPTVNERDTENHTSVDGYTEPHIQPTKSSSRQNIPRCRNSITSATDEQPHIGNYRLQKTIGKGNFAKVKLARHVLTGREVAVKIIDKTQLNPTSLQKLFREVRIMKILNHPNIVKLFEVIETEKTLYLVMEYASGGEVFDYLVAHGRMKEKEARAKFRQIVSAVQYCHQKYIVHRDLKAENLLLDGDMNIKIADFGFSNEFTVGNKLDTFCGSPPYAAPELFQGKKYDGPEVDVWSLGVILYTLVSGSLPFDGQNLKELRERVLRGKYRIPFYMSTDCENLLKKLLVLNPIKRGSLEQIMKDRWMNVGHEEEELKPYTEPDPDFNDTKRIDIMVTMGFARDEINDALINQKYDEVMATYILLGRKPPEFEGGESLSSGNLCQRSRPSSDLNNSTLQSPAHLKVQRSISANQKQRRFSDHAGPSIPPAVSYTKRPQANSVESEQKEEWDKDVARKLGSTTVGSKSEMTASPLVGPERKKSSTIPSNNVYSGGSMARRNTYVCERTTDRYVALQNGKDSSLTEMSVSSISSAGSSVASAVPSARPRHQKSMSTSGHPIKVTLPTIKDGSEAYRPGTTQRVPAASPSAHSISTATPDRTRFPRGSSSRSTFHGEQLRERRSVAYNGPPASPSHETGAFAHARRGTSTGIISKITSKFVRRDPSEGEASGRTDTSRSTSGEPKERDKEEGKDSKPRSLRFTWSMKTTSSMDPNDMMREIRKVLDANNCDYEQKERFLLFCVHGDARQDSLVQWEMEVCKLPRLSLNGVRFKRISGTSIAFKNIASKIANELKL
Chain of BRSK1 (human) (Q8TDC3 whole entry, looked up): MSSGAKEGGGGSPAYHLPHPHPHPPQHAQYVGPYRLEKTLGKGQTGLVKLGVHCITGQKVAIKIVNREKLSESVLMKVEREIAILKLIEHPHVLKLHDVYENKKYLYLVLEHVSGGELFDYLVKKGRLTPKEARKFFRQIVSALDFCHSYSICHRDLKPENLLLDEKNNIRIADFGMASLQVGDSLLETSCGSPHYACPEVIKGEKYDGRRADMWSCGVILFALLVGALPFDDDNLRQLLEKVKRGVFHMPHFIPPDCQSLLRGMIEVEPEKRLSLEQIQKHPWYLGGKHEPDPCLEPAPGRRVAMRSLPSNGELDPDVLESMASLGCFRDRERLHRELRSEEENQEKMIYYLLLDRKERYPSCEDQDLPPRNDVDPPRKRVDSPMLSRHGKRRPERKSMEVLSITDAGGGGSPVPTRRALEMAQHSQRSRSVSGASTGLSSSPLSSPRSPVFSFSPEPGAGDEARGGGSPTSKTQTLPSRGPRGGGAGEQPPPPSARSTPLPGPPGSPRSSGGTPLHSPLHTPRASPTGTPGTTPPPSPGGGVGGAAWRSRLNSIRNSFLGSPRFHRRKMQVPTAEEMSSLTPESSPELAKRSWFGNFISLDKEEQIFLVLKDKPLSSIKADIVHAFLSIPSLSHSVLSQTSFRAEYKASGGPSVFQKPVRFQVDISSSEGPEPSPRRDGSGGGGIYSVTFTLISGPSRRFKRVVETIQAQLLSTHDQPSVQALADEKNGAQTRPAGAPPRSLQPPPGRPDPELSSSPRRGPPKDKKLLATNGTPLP
Chain of MAP3K9 (human) (P80192 whole entry, looked up): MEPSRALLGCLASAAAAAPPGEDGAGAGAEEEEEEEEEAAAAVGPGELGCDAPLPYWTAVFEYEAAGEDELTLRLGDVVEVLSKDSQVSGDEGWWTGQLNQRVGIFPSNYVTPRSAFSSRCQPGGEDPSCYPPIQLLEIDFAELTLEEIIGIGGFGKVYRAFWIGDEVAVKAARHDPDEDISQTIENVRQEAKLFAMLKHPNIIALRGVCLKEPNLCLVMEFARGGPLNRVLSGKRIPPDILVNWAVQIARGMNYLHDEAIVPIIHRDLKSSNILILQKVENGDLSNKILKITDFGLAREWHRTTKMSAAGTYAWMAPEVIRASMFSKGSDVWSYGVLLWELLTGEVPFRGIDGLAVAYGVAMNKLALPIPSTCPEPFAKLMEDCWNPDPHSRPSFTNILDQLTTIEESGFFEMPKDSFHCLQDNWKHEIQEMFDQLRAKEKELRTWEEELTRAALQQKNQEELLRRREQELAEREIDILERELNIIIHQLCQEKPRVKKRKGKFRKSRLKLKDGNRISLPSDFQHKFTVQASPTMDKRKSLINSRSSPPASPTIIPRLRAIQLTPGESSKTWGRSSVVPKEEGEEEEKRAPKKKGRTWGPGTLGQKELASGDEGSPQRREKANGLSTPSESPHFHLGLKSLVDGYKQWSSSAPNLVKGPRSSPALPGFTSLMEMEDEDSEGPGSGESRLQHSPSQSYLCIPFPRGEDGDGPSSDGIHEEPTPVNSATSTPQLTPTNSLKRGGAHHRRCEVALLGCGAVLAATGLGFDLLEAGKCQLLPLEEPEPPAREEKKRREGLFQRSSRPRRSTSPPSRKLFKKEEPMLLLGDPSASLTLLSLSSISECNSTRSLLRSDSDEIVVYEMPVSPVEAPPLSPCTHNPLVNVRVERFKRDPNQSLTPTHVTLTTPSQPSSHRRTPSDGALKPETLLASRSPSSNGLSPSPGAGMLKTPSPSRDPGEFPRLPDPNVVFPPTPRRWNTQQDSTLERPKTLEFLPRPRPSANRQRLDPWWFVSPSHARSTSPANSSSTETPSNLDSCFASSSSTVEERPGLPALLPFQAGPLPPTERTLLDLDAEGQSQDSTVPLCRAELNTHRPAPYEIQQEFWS

Row | SMILES | inhibition (ABL1 (human)) [%] | inhibition (BRSK1 (human)) [%] | inhibition (BTK (human)) [%] | inhibition (CAMKK2 (human)) [%] | inhibition (CaMK1 (human)) [%] | inhibition (DAPK1 (human)) [%] | inhibition (EPHA4 (human)) [%] | inhibition (HIPK1 (human)) [%] | inhibition (INSR (human)) [%] | inhibition (IRAK4 (human)) [%] | inhibition (JAK2 JH1 JH2 (human)) [%] | inhibition (MAP2K1 (human)) [%] | inhibition (MAP3K7 TAB1 (human)) [%] | inhibition (MAP3K9 (human)) [%] | inhibition (MAPK13 (human)) [%] | inhibition (MAPK9 (human)) [%] | inhibition (MAPKAPK3 (human)) [%] | inhibition (MAPKAPK5 (human)) [%] | inhibition (MARK1 (human)) [%] | inhibition (MKNK2 (human)) [%] | other results
1 | CC(=O)Nc1nc2cnc(-c3ccccc3)cn2n1 | 48 | 23 | 28 | 41 | 17 | 12 | 19 | 16 | 60 | 39 | 25 | 34 | 30 | 43 | 1 | 1 | 2 | 6 | 6 | 35 | inhibition (NEK2 (human)): 25%; inhibition (NTRK1 (human)): 28%; inhibition (NUAK1 (human)): 33%; inhibition (PAK7 (human)): 20%; inhibition (PDPK1 (human); ATP 20 µM): 15%; inhibition (PDPK1 (human); ATP 50 µM): 13%; inhibition (PIM1 (human)): 13%; inhibition (PIM2 (human)): 11%; inhibition (PIM3 (human)): 30%; inhibition (PLK1 (human)): 4%; inhibition (PRKCG (human)): 2%; inhibition (RIPK2 (human)): 29%; inhibition (RPS6KA5 KD1 KD2 (human)): 11%; inhibition (STK16 (human)): 0%; inhibition (STK3 (human)): 0%; inhibition (TEK (human)): 11%; inhibition (YES1 (human)): 35%
2 | COc1ccc(NC(=S)Nc2cnc3[nH]cnn3c2=O)cn1 | 5 | 10 | 25 | 0 | 0 | 5 | 22 | 0 | 0 | 0 | 23 | 11 | 2 | 0 | 0 | 5 | 37 | 3 | 32 | 0 | inhibition (NEK2 (human)): 0%; inhibition (NTRK1 (human)): 0%; inhibition (NUAK1 (human)): 0%; inhibition (PAK7 (human)): 0%; inhibition (PDPK1 (human); ATP 20 µM): 29%; inhibition (PDPK1 (human); ATP 50 µM): 10%; inhibition (PIM1 (human)): 0%; inhibition (PIM2 (human)): 0%; inhibition (PIM3 (human)): 0%; inhibition (PLK1 (human)): 8%; inhibition (PRKCG (human)): 0%; inhibition (RIPK2 (human)): 0%; inhibition (RPS6KA5 KD1 KD2 (human)): 28%; inhibition (STK16 (human)): 3%; inhibition (STK3 (human)): 0%; inhibition (TEK (human)): 0%; inhibition (YES1 (human)): 30%
3 | CC(=O)Nc1nc2cnc(-c3c(C)cccc3C)cn2n1 | 18 | 0 | 0 | 18 | 35 | 0 | 10 | 0 | 0 | 0 | 9 | 0 | 0 | 0 | 19 | 0 | 74 | 17 | 0 | 0 | inhibition (NEK2 (human)): 0%; inhibition (NTRK1 (human)): 0%; inhibition (NUAK1 (human)): 0%; inhibition (PAK7 (human)): 5%; inhibition (PDPK1 (human); ATP 20 µM): 0%; inhibition (PDPK1 (human); ATP 50 µM): 0%; inhibition (PIM1 (human)): 9%; inhibition (PIM2 (human)): 5%; inhibition (PIM3 (human)): 1%; inhibition (PLK1 (human)): 0%; inhibition (PRKCG (human)): 12%; inhibition (RIPK2 (human)): 5%; inhibition (RPS6KA5 KD1 KD2 (human)): 0%; inhibition (STK16 (human)): 0%; inhibition (STK3 (human)): 0%; inhibition (TEK (human)): 0%; inhibition (YES1 (human)): 17%
4 | COc1ccc(-c2cc3c(=O)[nH]cnc3s2)cc1OC | 34 | 45 | 29 | 0 | 66 | 0 | 12 | 13 | 0 | 9 | 60 | 23 | 45 | 4 | 0 | 8 | 56 | 5 | 27 | 21 | inhibition (NEK2 (human)): 0%; inhibition (NTRK1 (human)): 15%; inhibition (NUAK1 (human)): 0%; inhibition (PAK7 (human)): 0%; inhibition (PDPK1 (human); ATP 20 µM): 41%; inhibition (PDPK1 (human); ATP 50 µM): 25%; inhibition (PIM1 (human)): 38%; inhibition (PIM2 (human)): 25%; inhibition (PIM3 (human)): 61%; inhibition (PLK1 (human)): 0%; inhibition (PRKCG (human)): 0%; inhibition (RIPK2 (human)): 65%; inhibition (RPS6KA5 KD1 KD2 (human)): 22%; inhibition (STK16 (human)): 12%; inhibition (STK3 (human)): 9%; inhibition (TEK (human)): 0%; inhibition (YES1 (human)): 0%
